Reference: ChEMBL document CHEMBL5291721, “A preclinical secondary pharmacology resource illuminates target-adverse drug reaction associations of marketed drugs” (Nat Commun, 2023)

What was measured:
[1] = biological target: Kappa-type opioid receptor (Homo sapiens, UniProt P41145)
[2] = biological target: T1, Alpha-2A adrenergic receptor (Homo sapiens, UniProt P08913); type: functional, cell-based
T1 sequence (P08913 whole entry): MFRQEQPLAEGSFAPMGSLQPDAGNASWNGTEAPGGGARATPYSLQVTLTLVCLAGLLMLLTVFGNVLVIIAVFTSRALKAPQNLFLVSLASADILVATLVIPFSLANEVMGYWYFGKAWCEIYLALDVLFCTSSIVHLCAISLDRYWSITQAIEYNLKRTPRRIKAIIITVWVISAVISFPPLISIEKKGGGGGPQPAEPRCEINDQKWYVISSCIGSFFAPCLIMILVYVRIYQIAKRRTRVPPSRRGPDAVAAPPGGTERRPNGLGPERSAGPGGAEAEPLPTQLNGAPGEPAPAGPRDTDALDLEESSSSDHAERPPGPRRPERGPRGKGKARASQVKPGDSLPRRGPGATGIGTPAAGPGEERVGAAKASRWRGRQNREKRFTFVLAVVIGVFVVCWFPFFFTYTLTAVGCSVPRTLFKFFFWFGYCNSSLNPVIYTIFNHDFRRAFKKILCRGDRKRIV

Vasopressin V1a receptor = Vasopressin V1a receptor (Homo sapiens, UniProt P37288)
Vasopressin V1a receptor, sequence (P37288 whole entry): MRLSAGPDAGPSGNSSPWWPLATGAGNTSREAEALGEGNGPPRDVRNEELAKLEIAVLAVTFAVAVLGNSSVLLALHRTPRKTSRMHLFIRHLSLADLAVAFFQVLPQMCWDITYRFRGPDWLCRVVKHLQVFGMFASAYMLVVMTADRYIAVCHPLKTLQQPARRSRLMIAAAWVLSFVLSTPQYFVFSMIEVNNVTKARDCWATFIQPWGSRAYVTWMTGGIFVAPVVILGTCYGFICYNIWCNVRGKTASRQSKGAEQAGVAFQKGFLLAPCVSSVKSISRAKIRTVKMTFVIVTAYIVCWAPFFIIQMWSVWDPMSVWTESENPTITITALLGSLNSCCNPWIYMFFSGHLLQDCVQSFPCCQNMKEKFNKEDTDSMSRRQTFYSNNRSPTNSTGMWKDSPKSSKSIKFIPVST

Cannabinoid receptor 1 = Cannabinoid receptor 1 (Homo sapiens, UniProt P21554); type: functional, cell-based
Cannabinoid receptor 1, sequence (P21554 whole entry): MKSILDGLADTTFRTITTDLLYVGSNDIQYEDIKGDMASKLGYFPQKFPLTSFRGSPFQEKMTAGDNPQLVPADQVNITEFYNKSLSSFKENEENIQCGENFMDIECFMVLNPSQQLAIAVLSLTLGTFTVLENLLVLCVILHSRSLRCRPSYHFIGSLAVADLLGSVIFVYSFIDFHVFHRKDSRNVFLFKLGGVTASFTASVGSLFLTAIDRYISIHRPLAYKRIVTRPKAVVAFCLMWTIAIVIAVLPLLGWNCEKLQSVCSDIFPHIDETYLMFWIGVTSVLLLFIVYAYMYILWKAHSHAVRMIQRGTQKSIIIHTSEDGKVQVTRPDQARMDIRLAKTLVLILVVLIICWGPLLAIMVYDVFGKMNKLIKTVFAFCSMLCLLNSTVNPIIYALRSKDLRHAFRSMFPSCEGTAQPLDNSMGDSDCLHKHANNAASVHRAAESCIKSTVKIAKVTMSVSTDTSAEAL

[3] = biological target: Gamma-aminobutyric acid receptor subunit alpha-1 (Rattus norvegicus, UniProt P62813)
Gamma-aminobutyric acid receptor subunit alpha-1, sequence (P62813 whole entry): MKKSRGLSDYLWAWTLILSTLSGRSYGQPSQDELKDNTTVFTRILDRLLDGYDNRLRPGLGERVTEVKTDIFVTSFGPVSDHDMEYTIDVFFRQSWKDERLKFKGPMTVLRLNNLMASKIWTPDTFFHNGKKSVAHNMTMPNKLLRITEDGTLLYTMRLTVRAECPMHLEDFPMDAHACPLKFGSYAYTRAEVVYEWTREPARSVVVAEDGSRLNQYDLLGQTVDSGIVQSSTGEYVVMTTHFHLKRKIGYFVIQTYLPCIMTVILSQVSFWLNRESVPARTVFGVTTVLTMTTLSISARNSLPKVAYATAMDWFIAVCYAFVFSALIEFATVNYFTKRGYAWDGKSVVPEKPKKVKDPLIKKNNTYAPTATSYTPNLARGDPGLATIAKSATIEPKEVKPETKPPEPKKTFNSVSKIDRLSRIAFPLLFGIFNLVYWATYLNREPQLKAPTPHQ

[4] = biological target: 5-hydroxytryptamine receptor 2A (Homo sapiens, UniProt P28223); type: functional, cell-based
5-hydroxytryptamine receptor 2A, sequence (P28223 whole entry): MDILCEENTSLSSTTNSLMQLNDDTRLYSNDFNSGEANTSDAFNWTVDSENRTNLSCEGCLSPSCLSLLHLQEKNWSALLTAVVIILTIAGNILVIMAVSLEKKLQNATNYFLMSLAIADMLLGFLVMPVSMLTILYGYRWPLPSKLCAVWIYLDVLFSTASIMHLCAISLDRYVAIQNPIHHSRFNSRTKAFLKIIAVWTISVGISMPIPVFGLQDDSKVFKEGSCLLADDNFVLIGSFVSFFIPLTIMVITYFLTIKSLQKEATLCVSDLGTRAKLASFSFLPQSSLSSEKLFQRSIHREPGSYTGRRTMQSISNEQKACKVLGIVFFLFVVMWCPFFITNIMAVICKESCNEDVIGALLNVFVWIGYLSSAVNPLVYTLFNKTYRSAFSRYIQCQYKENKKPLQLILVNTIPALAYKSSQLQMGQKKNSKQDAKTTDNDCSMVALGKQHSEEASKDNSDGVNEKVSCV

[5] = biological target: T2, 5-hydroxytryptamine receptor 3A (Homo sapiens, UniProt P46098); type: functional
T2 sequence (P46098 whole entry): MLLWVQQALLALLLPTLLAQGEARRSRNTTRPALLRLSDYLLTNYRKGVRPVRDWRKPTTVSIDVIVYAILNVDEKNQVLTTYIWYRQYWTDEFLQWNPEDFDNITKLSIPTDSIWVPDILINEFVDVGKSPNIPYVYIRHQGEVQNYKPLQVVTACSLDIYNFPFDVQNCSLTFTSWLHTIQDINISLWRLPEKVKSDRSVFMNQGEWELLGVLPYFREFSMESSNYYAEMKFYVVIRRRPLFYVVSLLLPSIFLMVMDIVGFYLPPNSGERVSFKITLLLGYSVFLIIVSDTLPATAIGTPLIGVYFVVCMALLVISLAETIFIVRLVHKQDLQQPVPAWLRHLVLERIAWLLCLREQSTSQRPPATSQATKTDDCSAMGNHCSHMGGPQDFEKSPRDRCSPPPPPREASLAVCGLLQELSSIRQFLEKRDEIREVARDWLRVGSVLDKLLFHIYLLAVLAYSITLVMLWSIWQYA

[6] = biological target: Delta-type opioid receptor (Homo sapiens, UniProt P41143)
Delta-type opioid receptor, sequence (P41143 whole entry): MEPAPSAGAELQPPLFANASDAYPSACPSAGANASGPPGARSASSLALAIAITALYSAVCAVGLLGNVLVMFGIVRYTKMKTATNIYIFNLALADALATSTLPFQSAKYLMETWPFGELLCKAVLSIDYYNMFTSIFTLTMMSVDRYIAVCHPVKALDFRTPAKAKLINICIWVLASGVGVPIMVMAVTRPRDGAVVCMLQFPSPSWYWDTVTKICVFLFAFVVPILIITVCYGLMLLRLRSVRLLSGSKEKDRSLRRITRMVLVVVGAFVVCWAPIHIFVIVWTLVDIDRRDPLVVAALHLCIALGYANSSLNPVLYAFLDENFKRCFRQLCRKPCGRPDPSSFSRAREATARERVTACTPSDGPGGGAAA

[7] = biological target: T3, Neuropeptide Y receptor type 1 (Homo sapiens, UniProt P25929)
T3 sequence (P25929 whole entry): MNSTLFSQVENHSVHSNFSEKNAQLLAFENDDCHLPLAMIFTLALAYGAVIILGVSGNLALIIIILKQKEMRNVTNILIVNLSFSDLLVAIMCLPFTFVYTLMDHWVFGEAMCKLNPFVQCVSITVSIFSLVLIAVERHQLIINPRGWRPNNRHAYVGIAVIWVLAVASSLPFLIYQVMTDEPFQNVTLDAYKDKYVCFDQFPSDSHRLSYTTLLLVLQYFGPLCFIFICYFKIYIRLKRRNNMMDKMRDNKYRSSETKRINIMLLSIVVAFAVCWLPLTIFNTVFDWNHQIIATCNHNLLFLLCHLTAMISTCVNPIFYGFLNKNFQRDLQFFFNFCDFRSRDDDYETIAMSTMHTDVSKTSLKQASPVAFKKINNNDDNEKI

[8] = biological target: T4, 5-hydroxytryptamine receptor 2C (Homo sapiens, UniProt P28335)
T4 sequence (P28335 whole entry): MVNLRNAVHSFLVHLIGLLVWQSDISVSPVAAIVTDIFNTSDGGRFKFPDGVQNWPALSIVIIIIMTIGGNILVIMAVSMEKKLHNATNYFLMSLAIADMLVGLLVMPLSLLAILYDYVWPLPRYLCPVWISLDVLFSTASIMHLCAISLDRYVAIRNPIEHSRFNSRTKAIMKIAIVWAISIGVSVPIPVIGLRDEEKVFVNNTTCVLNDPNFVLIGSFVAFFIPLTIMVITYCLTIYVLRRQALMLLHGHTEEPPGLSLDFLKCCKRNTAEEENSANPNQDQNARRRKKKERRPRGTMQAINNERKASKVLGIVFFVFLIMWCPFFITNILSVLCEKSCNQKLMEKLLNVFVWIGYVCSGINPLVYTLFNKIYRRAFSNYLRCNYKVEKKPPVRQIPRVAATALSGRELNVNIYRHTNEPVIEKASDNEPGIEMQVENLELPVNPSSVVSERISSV

[9] = biological target: T5, Amine oxidase [flavin-containing] A (Homo sapiens, UniProt P21397); type: functional
T5 sequence (P21397 whole entry): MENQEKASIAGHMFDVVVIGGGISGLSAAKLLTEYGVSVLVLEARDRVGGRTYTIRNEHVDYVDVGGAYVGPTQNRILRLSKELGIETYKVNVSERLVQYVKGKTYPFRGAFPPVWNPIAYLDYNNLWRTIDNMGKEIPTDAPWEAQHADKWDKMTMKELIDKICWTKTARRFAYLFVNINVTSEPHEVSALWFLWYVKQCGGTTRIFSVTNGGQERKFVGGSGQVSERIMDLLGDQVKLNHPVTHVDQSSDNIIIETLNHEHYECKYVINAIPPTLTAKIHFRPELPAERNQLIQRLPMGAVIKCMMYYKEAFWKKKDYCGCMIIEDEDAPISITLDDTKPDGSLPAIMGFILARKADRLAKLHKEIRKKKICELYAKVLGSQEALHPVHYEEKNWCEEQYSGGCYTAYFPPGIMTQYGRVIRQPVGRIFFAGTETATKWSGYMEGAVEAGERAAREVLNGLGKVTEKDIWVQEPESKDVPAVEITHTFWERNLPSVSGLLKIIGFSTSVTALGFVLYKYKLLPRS
Further: assay procedure not described here.

Kappa-type opioid receptor, sequence (P41145 whole entry): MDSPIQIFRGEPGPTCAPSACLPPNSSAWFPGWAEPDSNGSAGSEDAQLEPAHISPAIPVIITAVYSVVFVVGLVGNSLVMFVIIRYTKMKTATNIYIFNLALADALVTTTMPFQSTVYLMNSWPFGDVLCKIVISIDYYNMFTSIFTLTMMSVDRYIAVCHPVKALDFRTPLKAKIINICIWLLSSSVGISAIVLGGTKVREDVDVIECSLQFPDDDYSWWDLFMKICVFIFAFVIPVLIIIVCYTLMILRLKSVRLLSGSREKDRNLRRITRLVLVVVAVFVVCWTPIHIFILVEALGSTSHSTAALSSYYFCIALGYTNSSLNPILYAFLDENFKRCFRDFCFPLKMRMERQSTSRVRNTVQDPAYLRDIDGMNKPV

Compound	AC50 [1]	AC50 [2]	AC50 (Vasopressin V1a receptor)	AC50 (Cannabinoid receptor 1)	AC50 [3]	AC50 [4]	AC50 [5]	AC50 [6]	AC50 [7]	AC50 [8]	AC50 [9]
CC(C)C(=O)OCC(=O)[C@@]12O[C@H](C3CCCCC3)O[C@@H]1C[C@H]1[C@@H]3CCC4=CC(=O)C=C[C@]4(C)[C@H]3[C@@H](O)C[C@@]12C [CICLESONIDE]	9.72 µM	> 10 µM	> 10 µM	> 30 µM	> 30 µM	> 10 µM	> 30 µM	> 30 µM	> 10 µM	> 30 µM	> 10 µM
CCOC(=O)[C@H](CCc1ccccc1)N[C@H]1CCCN2CCC[C@@H](C(=O)O)N2C1=O [CILAZAPRIL]	> 30 µM	> 30 µM	> 30 µM	> 30 µM	> 30 µM	> 30 µM	> 30 µM	> 30 µM	> 30 µM	> 30 µM	> 30 µM
COC(=O)[C@H]1[C@@H](OC(=O)c2ccccc2)C[C@@H]2CC[C@H]1N2C [COCAINE]	> 30 µM	> 30 µM	> 30 µM	> 30 µM	> 30 µM	> 30 µM	> 30 µM	> 30 µM	> 30 µM	> 30 µM	19 µM
[H]/N=C(/N)c1ccc(NCc2nc3cc(C(=O)N(CCC(=O)O)c4ccccn4)ccc3n2C)cc1 [DABIGATRAN]	> 30 µM	> 30 µM	> 30 µM	> 30 µM	> 30 µM	> 30 µM	> 30 µM	> 30 µM	> 30 µM	> 30 µM	> 30 µM
CCCCOc1cc(C(=O)NCCN(CC)CC)c2ccccc2n1 [DIBUCAINE]	7.36 µM	> 10 µM	> 30 µM	> 30 µM	> 30 µM	> 10 µM	> 30 µM	> 30 µM	> 30 µM	> 30 µM	> 10 µM
CCCCCCCCCCCC[N+](C)(C)CCOc1ccccc1 [DOMIPHEN]	3.6 µM	13 µM	11 µM	> 30 µM	> 30 µM	> 30 µM	> 30 µM	> 30 µM	4.4 µM	1.1 µM	28 µM
CCC1(C2=CCCCCC2)C(=O)NC(=O)NC1=O [HEPTABARBITAL]	> 10 µM	> 10 µM	> 10 µM	> 30 µM	> 10 µM	> 10 µM	> 30 µM	> 30 µM	> 10 µM	> 30 µM	> 10 µM
CCCCCN(C)CCC(O)(P(=O)(O)O)P(=O)(O)O [IBANDRONIC ACID]	> 30 µM	> 30 µM	> 30 µM	> 30 µM	> 30 µM	> 30 µM	> 30 µM	> 30 µM	> 30 µM	> 30 µM	> 30 µM
C1=Cc2cccc(OCC3CNCCO3)c2C1 (stereo unspecified) [INDELOXAZINE]	25 µM	> 30 µM	> 30 µM	> 30 µM	> 30 µM	> 30 µM	25 µM	22 µM	> 30 µM	> 10 µM	> 30 µM
COc1ccc(C(=O)NCc2ccc(OCCN(C)C)cc2)cc1OC [ITOPRIDE]	> 30 µM	> 30 µM	> 30 µM	> 30 µM	> 30 µM	> 30 µM	> 30 µM	> 30 µM	> 30 µM	> 30 µM	> 30 µM
CC/C=C\C/C=C\C/C=C\CCCCCCCC(=O)O [LINOLENIC ACID]	> 30 µM	> 30 µM	> 30 µM	> 30 µM	> 30 µM	> 30 µM	> 30 µM	> 30 µM	> 30 µM	> 30 µM	> 30 µM
C#C[C@]1(O)CC[C@H]2[C@@H]3CCC4=CCCC[C@@H]4[C@H]3CC[C@@]21C [LYNESTRENOL]	1.5 µM	> 30 µM	> 30 µM	> 30 µM	> 30 µM	> 30 µM	> 30 µM	> 30 µM	> 30 µM	> 30 µM	0.3 µM
C[C@H]1C[C@@H]2[C@H]([C@@H](O)C[C@@]3(C)[C@H]2CC[C@]3(O)C(=O)COC(=O)CCC(=O)O)[C@@]2(C)C=CC(=O)C=C12 [METHYLPREDNISOLONE HEMISUCCINATE]	> 30 µM	> 30 µM	> 30 µM	> 30 µM	> 30 µM	> 30 µM	> 30 µM	> 30 µM	> 30 µM	> 30 µM	> 30 µM
Cc1cc(-c2ccccc2)nnc1NCCN1CCOCC1 [MINAPRINE]	> 10 µM	> 10 µM	> 10 µM	> 30 µM	> 10 µM	> 30 µM	> 30 µM	> 30 µM	> 30 µM	> 30 µM	> 10 µM
CCCCC(C)(O)C/C=C/[C@H]1[C@H](O)CC(=O)[C@@H]1CCCCCCC(=O)OC (stereo partly specified) [MISOPROSTOL]	> 30 µM	> 30 µM	> 30 µM	> 30 µM	> 30 µM	> 30 µM	> 30 µM	> 30 µM	> 30 µM	> 10 µM	> 30 µM
O=C(OCCN1CCOCC1)c1cccnc1Nc1cccc(C(F)(F)F)c1 [MORNIFLUMATE]	24 µM	> 30 µM	> 30 µM	> 30 µM	> 30 µM	> 30 µM	> 30 µM	> 30 µM	> 30 µM	> 30 µM	> 30 µM
